pEC50: −log10 of the molar value.
Columns and labels:
[1] = biological target: T1, HIV-1 protease (Q7S mutant form) (Human immunodeficiency virus type 1 group M subtype B, UniProt P04585, Q495S); experiment: HIV-1 Protease RET assay; type: biochemical; conditions: Ave. Ki (nM), RET assay, Q7S enzyme, Morrison tight binding fit
T1 construct: made in house
Method in brief: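 Q7S HIV-1 protease, refolded from urea, 2 nM active dimer with 5 μM EDANS/DABCYL peptide cleaved at Tyr-Pro; fluorescence 340/490 nm. 12 min at 37 °C in 0.1M sodium acetate pH 4.8, 1M NaCl, 10% DMSO. Ki from Morrison tight-binding fit.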

[2] = system: HIV-1 (HIV-1 RF, HIV-1 NL4-3) in CEM-SS / MT-2 cells; experiment: Cytopathic effect (CPE) inhibition assay (XTT/MTT dye reduction); type: cell-based; conditions: Human immunodeficiency virus 1, NL43; read-out: Ave CPE EC50
Method in brief: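 CEM-SS or MT-2 cells were infected with HIV-1 RF or NL4-3 (moi 0.025–0.819) and plated at 2×10^4 cells/well with half-log compound dilutions for 6 days. Viability was read by XTT formazan at 450 nm after 4 h. EC50 restores formazan to 50% of uninfected untreated cells, CC50 halves it in uninfected cells, and TI = CC50/EC50.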

[3] = system: 461, 84V, 90M virus; experiment: Phenotypic susceptibility assay at Virologic, Inc.; type: cell-based, HIV-1; conditions: Human immunodeficiency virus 1, read-out: EC50 or IC50 (mM), values with asterisk (IC50)
Method: Compounds were tested in phenotypic susceptibility assays at Virologic, Inc., (See Petropoulos C. J., Parkin N. T., Limoli K. L., Lie Y. S., Wrin T., Huang W., Tian H., Smith D., Winslow G. A., Capon D J, Whitcomb J M. 2000, “A novel phenotypic drug susceptibility assay for human immunodeficiency virus type 1,” Antimicrob Agents Chemother 44(4):920–928) or using the assay described here. MT-2 cells were infected with either HIV-1 NL4-3 or HIV-1 NL4-3([…]) and incubated in the presence of serial 0.5 log dilutions of test compounds. Three days later, culture supernatants were collected and virus production, as determined by p24 ELISA, was assayed. Percent inhibition was calculated as p24 concentration in compound-treated samples as compared to infected, compound-free controls. Inhibition of viral replication is determined by measuring reduction in HIV p24 present in the culture supernatant, using a Beckman-Coulter p24HIV-1 Ag EIA kit and following the supplied protocol. Absorbance is read on a MRX microplate reader (Dynex Technologies). The EC50 was calculated as the concentration of compound that effected a decrease in the p24 production by infected, compound-treated cells to 50% of that produced by infected, compound-free cells.

Row | Structure (SMILES) | Ki [1] | pEC50 [2] | IC50 [3] | melting point
1 | Cc1c(O)cccc1C(=O)N[C@@H](Cc1ccccc1)[C@H](O)C(=O)N1CSC(C)(C)[C@H]1C(=O)N[C@H]1CCOc2ccccc21 [Example A17, (R)-3-((2S,3S)-2-Hydroxy-3-{[1-(3-hydroxy-2-methyl-phenyl)-methanoyl]-amino}-4-phenyl-butanoyl)-5,5-dimethyl-thiazolidine-4-carboxylic acid (S)-chroman-4-ylamide] | < 0.1 nM | 7.62 | 49 nM | 135 to 136 °C
2 | Cc1c(O)cccc1C(=O)N[C@@H](Cc1ccccc1)[C@H](O)C(=O)N1CSC(C)(C)[C@H]1C(=O)N[C@@H]1CCc2ccccc21 [Example A29, (R)-3-((2S,3S)-2-Hydroxy-3-{[1-(3-hydroxy-2-methyl-phenyl)-methanoyl]-amino}-4-phenyl-butanoyl)-5,5-dimethyl-thiazolidine4-carboxylic acid (R)-indan-1-ylamide] | 0.31 nM | 6.93 | – | 128 to 130 °C
3 | Cc1c(O)cccc1C(=O)N[C@@H](Cc1ccccc1)[C@H](O)C(=O)N1CSC(C)(C)[C@H]1C(=O)N[C@@H]1C=CCCC1 [Example A32, (R)-3-((2S,3S)-2-Hydroxy-3-{[1-(3-hydroxy-2-methyl-phenyl)-methanoyl]-amino}-4-phenyl-butanoyl)-5,5-dimethyl-thiazolidine-4-carboxylic acid (S)-cyclohex-2-enylamide] | < 0.1 nM | 7.92 | 55 nM | 177 to 179 °C
4 | Cc1c(O)cccc1C(=O)N[C@@H](Cc1ccccc1)[C@H](O)C(=O)N1CSC(C)(C)[C@H]1C(=O)N[C@H]1CCc2ccccc21 [Example A35, (R)-3-((2S,3S)-2-Hydroxy-3-{[1-(3-hydroxy-2-methyl-phenyl)-methanoyl]-amino}-4-phenyl-butanoyl)-5,5-dimethyl-thiazolidine-4-carboxylic acid (S)-indan-1-ylamide] | < 0.1 nM | 7.80 | 41 nM | 204 to 206 °C
5 | Cc1c(O)cccc1C(=O)N[C@@H](Cc1ccccc1)[C@H](O)C(=O)N1CSC(C)(C)[C@H]1C(=O)NC1CCC(C)CC1 (stereo partly drawn) [Example A36, (R)-3-((2S,3S)-2-Hydroxy-3-{[1-(3-hydroxy-2-methyl-phenyl)-methanoyl]-amino}-4-phenyl-butanoyl)-5,5-dimethyl-thiazolidine-4-carboxylic acid (4-methyl-cyclohexyl)-amide] | 0.78 nM | 6.46 | – | 192 to 194 °C
6 | Cc1c(O)cccc1C(=O)N[C@@H](Cc1ccccc1)[C@H](O)C(=O)N1CSC(C)(C)[C@H]1C(=O)N[C@H]1C=CCCC1 [Example A38, (R)-3-((2S,3S)-2-Hydroxy-3-{[1-(3-hydroxy-2-methyl-phenyl)-methanoyl]-amino}-4-phenyl-butanoyl)-5,5-dimethyl-thiazolidine-4-carboxylic acid (R)-cyclohex-2-enylamide] | < 0.1 nM | 7.42 | – | 193 to 195 °C
7 | Cc1cccc(C)c1OCC(=O)N[C@@H](Cc1ccccc1)[C@H](O)C(=O)N1CSC(C)(C)[C@H]1C(=O)N[C@H]1CCOc2ccccc21 [Example B30, (R)-3-{(2S,3S)-3-[2-(2,6-Dimethyl-phenoxy)-ethanoylamino]-2-hydroxy-4-phenyl-butanoyl}-5,5-dimethyl-thiazolidine-4-carboxylic acid (S)-chroman-4-ylamide] | 0.21 nM | 6.35 | – | 105 to 107 °C
8 | CC1(C)SCN(C(=O)[C@@H](O)[C@H](Cc2ccccc2)NC(=O)O[C@H]2CCOC2)[C@@H]1C(=O)N[C@H]1CCCc2ccccc21 [Example B33, ((1S,2S)-1-Benzyl-3-{(R)-5,5-dimethyl-4-[(S)-(1,2,3,4-tetrahydro-naphthalen-1-yl)carbamoyl]-thiazolidin-3-yl}-2-hydroxy-3-oxo-propyl)-carbamic acid (S)-(tetrahydro-furan-3-yl) ester] | < 0.1 nM | 7.35 | 604 nM | 103 to 105 °C
